The text below walks through data of patent publication EP0942896B1, “SUBSTITUTED PHENOLS AND THIOPHENOLS USEFUL AS ANTIOXIDANT AGENTS” (Aventis Pharmaceuticals Inc., priority 1996, dated 1998).

Molecules are shown by their SMILES. Where two headings read alike, the source gives them in different places.

Data set [1] in a line: Animal parameters (food, body weight, liver weight/body weight, mortality) in rats. The class given is in vivo. Particulars: 4 days; for food / lw/bw / body wt.: % of control, diet 0.3%, N = 5; for food: grams eaten per day per rat; for lw/bw: liver weight/body weight; for lw/bw / body wt. / mortality: rat; for body wt.: weight in grams; for mortality: male, Sprague-Dawley, in vivo. The text has this:
(§1) A typical experiment consists of 4-6 groups of rats (N = 5 per group) with I group being a control which receives no MDL compound and the other groups being treated with 0.3% MDL compound. Some of the compounds are either repeated at 0.3% or evaluated again at the lower dose of 0.1%. House Male Sprague-Dawley rats, 50-100 g, (Harlan Laboratories, Indianapolis, IN) in groups of 5, feeding ad libitum water and Purina Rodent chow (#5002) with or without MDL compound as a dietary admixture for 4 days. Make dietary admixtures (0.3%) by mixing 1.2 grams of an MDL compound with 400 grams of Purina rodent chow (#5002). Mix the MDL compound with approximately 50 grams of food using a mortar and pestle. This is added to the remainder of the food and mixed for 3 hours on a rotary mixer. In the morning of day 5, anesthetize non-fasted rats with carbon dioxide, and collect blood by cardiac puncture. Sacrifice rats by cervical dislocation. Record body weights and liver weights in grams. Record food consumption as grams • day^-1 • rat^-1. Deaths are recorded as mortality. Use aliquots of fresh serum for clinical chemistries, thiobarbituric acid reactive substances (TBARS) and conjugated diene measurements. Freeze aliquots of serum (∼ 0.5mL) and whole livers at -20°C for compound and metabolite concentration determination at a later time.

Data set [2] relates to oxidation of serum lipids. The experiment in a line: TBARS assay on serum of treated rats (CuSO4-initiated oxidation). It is filed as in vivo, Male Sprague-Dawley rats. The conditions noted are these: % of control; thiobarbituric acid reactive substances as nmoles MDA, rat serum; diet 0.3%, 4 days; N = 5.
Excerpt: as §1
In this assay the oxidation of serum lipids is initiated with CuSO4, resulting in the formation of aldehydes, such as malondialdehyde (MDA). Upon incubation with thiobarbituric acid, the absorbance of the aldehydes can be detected at 530-540 nm. As stated in the previous example, TBARS values which are lower than control serum values indicate the relative ability of a test compound to inhibit the oxidation of lipids in a sample. Measure TBARS as follows: mix 100µL of serum with 400µL of a 5mmol CuSO4 solution and incubate at 37°C for 3 hr. Stop the reactions by addition of 1.0mL of 20% trichloroacetic acid. Then add 1.0mL of 0.67% thiobarbituric acid in 0.05 N sodium hydroxide, mix, and incubate the samples for 30 min at 90°C. Centrifuge samples briefly to pellet undissolved material, and transfer the supernatants to a 96-well microtiter plate. Measure absorbances at 540 nm using a Biotek model EL311 microplate reader. The nmoles of MDA produced are calculated from a standard curve of 0 to 10 nmoles of MDA prepared from malonaldehyde bis(dimethylacetal). Serum samples from treated rats are compared to serum samples from control rats that received no MDL compound.

Another data set concerns Male Sprague-Dawley Rats. Briefly: Serum clinical chemistries in rats fed compound as dietary admixture. The class given is in vivo. Particulars: % of control, diet 0.3%, 4 days, N = 5; for ALT: alanine aminotransferase in rat serum; for ALP: alkaline phosphatase in rat serum; for AST: aspartate aminotransferase in rat serum; for GLUC: glucose in rat serum; for response vs control in vivo at 0.3 % in diet: feed or water, 96 h.
Excerpt: as §1
Allow blood to clot at room temperature for 30 minutes. Obtain serum after centrifugation for 10 min at 4°C at 3000 rpm in a Beckman J-6M/E centrifuge with a JS-4.2 rotor. Analyze fresh serum by a COBAS MIRA S autoanalyzer (Roche Diagnostics) using Roche diagnostic reagents for the following clinical chemistry measurements: alkaline phosphatase (ALP, kit # 44553), alanine transaminase (ALT, kit # 42375), aspartate aminotransferase (AST, kit # 42381), total cholesterol (CHOL, kit # 44334), triglyceride (TG, kit # 44120), and glucose (GLU, kit # 44558). Calculate ALP, ALT, and AST as units/L. Calculate cholesterol, triglycerides, and glucose as mg/dL.

A further data set deals with VCAM-1. Briefly: Inhibition of cytokine-induced VCAM-1 expression in human aortic smooth muscle cells (cell ELISA). The class given is cell-based. The conditions noted are these: HASMC, interleukin-4 stimulated, average of three runs, read-out: VCAM-1 (% inh. 50 µM). On the procedure:
Plate proliferating human umbilical vein endothelial cells (HUVEC) or human aortic smooth muscle cells (HASMC) from Clonetics (San Diego, CA) onto 96-well plates in 100 µL medium per well at 20,000 cells per cm^2. Maintain the cultures in growth medium (EGM or SMGM2, Clonetics, San Diego, CA) for two days prior to addition of cytokines or drugs. Add cytokines plus or minus compounds for 20 to 24 hours prior to analysis for adhesion molecule levels. Add tumor necrosis factor (Genzyme, Cambridge, MA) to cultures at 500-1000 units/mL to stimulate ICAM-1 expression. Add interleukin-4 (GIBCO-BRL, Gaithersburg, MD) to cultures at 100-200 pg/mL to stimulate VCAM-1 expression. […] Remove the culture medium, and wash the monolayers twice with Hanks buffered saline solution (HBSS) at room temperature. Add the primary antibody (anti-human VCAM-1 from Upstate Biotechnology, Inc., Lake Placid, NY or anti-human ICAM-1 from Immunotech, Inc., Westbrook, ME) to each well (1 µg/mL in HBSS plus 5% newborn calf serum, GIBCO-BRL, Gaithersburg, MD) and incubate at 37°C for 1 hr. Wash the wells twice with HBSS, then add 100 µL of a 1/1000 dilution of goat anti-mouse IgG conjugated to horse radish peroxidase (BioRad, Hercules, CA) in HBSS plus 5% newborn calf serum to each well and incubated for 1 hr at 37°C. Wash the wells three times with HBSS, then add 100 µL of TMB substrate (BioRad, Hercules, CA) to each well. Stop the reaction after blue color develops by addition of 50 µL of IN H2SO4. Measure absorbance at 450 nm with a plate reader.
Table 1 summarizes the ability of selected compounds of this invention to inhibit VCAM-1 and ICAM-1 using human aortic smooth muscle cells (HASMC). In these experiments, the cells were coincubated with interleukin-4 to stimulate VCAM-1 expression and with tumor necrosis factor-alpha to stimulate ICAM-1 expression.
(In general: An ELISA detects its analyte on a solid surface through an enzyme-linked reagent.)

Where [3] appears, read: total cholesterol in rat serum, read-out: CHOL.
Setting [4] is: triglycerides in rat serum, read-out: TRIG.

In data set [1], `CC(C)CCCC(C)CCOc1ccc(O)c(C(C)(C)C)c1` (centres unmarked) [MDL 104,191, Phenol, 2-(1,1-dimethylethyl)-4-[(3,7-dimethyloctyl)oxy]-] returned a food of 76%, a lw/bw of 126%, a body wt. of 92% and a mortality of 0%. The molecule also had a TBARS in data set [2] of 20%. In the data set on Male Sprague-Dawley Rats, the ALT is given as 149%, the ALP is 81%, the AST came to 146% and the GLUC amounted to 106%. The response vs control in vivo at 0.3 % in diet in the data set on Male Sprague-Dawley Rats (setting [3]) amounted to 109%. Also, in the data set with Male Sprague-Dawley Rats (setting [4]), the response vs control in vivo at 0.3 % in diet is 112%. Besides, in the data set with VCAM-1, the inhibition at 50 µM turned out to be 42.9 ± 7%.

In data set [1], `CC(C)=CCC[C@H](C)CCOc1cc(C(C)(C)C)c(O)c(C(C)(C)C)c1` [MDL 103,294, Phenol, 2,6-bis(1,1-dimethylethyl)-4-[(3,7-dimethyl-6-octenyl)oxy]-, (S)-] gave a food of 108%, a lw/bw of 129%, a body wt. of 101% and a mortality of 0%. In data set [2], the TBARS is 18%. In the data set with Male Sprague-Dawley Rats, the ALT is 132%, the ALP amounted to 124%, the AST is 88% and the GLUC was 103%. Moreover, the response vs control in vivo at 0.3 % in diet in the data set on Male Sprague-Dawley Rats (setting [3]) amounted to 102%. Also, in the data set with Male Sprague-Dawley Rats (setting [4]), the response vs control in vivo at 0.3 % in diet was found to be 56%.

In data set [1], `CC(C)=CCC[C@@H](C)CCOc1cc(C(C)(C)C)c(O)c(C(C)(C)C)c1` [MDL 104,535, Phenol, 2,6-bis(1,1-dimethylethyl)-4-[(3,7-dimethyl-6-octenyl)oxy]-,(R)-] came in with a food of 95%, a lw/bw of 119%, a body wt. of 102% and a mortality of 0%. In data set [2], this molecule displayed a TBARS of 11%. In the data set on Male Sprague-Dawley Rats, the ALT came out at 108%, the ALP is recorded as 151%, the AST turned out to be 94% and the GLUC stood at 112%. Further, the response vs control in vivo at 0.3 % in diet in the data set on Male Sprague-Dawley Rats (setting [3]) amounted to 103%. Also, the response vs control in vivo at 0.3 % in diet with Male Sprague-Dawley Rats (setting [4]) is 60%. For the same molecule, the inhibition at 50 µM with VCAM-1 is 26.4 ± 14%.

In data set [1], `CC(C)=CCCC(C)CCSc1cc(C(C)(C)C)c(O)c(C(C)(C)C)c1` (centres unmarked) [MDL 103,960, Phenol, 2,6-bis(1,1-dimethylethyl)-4-[(3,7-dimethyl-6-octenyl)thio]-] displayed a food of 105%, a lw/bw of 130%, a body wt. of 100% and a mortality of 0%. Also, the TBARS in data set [2] is recorded as 24%. Moreover, in the data set on Male Sprague-Dawley Rats, the ALT was 117%, the ALP was 125%, the AST worked out at 102% and the GLUC was 110%. Besides, the response vs control in vivo at 0.3 % in diet with Male Sprague-Dawley Rats (setting [3]) came out at 113%. Also, the response vs control in vivo at 0.3 % in diet in the data set with Male Sprague-Dawley Rats (setting [4]) amounted to 80%. Also, in the data set on VCAM-1, the inhibition at 50 µM was 33.9 ± 6%.

As a reminder, the mortality is the share of the test organisms that died. Read a low mortality as more survivors.
